Molecules are shown by their SMILES.

The nature of assay [1]: Antiproliferative activity against human EAhy926 cells after 72 hrs by MTS assay. The assay is classed as functional, EA.hy 926. Also on record: concentration or dose not given beside the values.
Assay [2] deals with HT-29. The experiment in a line: Antiproliferative activity against human HT-29 cells after 72 hrs by MTS assay. Type of assay: functional. More on the design: concentration or dose not given beside the values. In general terms: Tetrazolium dyes change colour on reduction, which living cells bring about.
Assay [3] addresses Epidermal growth factor receptor (Homo sapiens, UniProt P00533). Nature of the assay: Inhibition of human EGFR-mediated poly(Glu4Tyr) phosphorylation after 1 hr.
Assay [4] has as its system PC-3. Nature of the assay: Antiproliferative activity against human PC3 cells after 72 hrs by MTS assay. The assay is classed as functional. More on the design: concentration or dose not given beside the values.
The target in assay [5] is T1, Vascular endothelial growth factor receptor 2 (Homo sapiens, UniProt P35968). Nature of the assay: Inhibition of recombinant human VEGFR-2-mediated poly(Glu4Tyr) phosphorylation after 1 hr.
T1 sequence (P35968 whole entry): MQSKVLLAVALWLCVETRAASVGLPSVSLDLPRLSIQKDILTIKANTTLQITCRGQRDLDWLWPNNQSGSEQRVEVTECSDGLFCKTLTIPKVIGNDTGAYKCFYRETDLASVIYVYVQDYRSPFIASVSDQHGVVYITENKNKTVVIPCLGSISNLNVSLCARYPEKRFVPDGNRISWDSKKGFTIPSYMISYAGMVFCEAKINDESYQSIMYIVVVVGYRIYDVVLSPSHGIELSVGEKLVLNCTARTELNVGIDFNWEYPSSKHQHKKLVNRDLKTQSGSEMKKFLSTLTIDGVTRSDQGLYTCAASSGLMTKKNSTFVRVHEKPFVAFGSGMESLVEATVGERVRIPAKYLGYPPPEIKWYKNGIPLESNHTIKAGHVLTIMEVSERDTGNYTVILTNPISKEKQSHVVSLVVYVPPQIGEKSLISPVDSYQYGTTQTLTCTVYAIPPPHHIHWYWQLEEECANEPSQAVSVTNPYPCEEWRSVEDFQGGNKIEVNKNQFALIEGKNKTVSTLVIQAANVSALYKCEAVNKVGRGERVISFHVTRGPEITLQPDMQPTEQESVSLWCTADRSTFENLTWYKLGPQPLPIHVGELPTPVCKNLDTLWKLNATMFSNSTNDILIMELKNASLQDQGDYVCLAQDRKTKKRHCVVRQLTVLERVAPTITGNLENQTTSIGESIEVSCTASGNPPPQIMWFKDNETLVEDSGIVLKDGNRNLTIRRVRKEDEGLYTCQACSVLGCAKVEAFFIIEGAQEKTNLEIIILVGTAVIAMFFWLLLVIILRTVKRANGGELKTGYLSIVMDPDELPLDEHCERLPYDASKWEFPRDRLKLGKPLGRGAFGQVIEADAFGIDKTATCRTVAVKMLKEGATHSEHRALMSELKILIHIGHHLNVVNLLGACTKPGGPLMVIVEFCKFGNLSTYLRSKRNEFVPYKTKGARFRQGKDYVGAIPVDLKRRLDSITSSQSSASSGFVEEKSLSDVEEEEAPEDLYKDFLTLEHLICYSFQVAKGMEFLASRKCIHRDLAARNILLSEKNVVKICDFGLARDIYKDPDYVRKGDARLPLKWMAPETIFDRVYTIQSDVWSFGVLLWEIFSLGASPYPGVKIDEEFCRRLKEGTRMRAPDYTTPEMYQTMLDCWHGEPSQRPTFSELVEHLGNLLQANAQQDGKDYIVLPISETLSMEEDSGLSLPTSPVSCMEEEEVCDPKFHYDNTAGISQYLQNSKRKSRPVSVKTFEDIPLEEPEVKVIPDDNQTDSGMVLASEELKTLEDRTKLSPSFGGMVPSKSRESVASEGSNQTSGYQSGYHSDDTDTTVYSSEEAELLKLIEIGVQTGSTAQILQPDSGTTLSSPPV
In assay [6] the test system is MCF7. The experiment in a line: Antiproliferative activity against human MCF7 cells after 72 hrs by MTS assay. Type of assay: functional. More on the design: concentration or dose not given beside the values.
The target in assay [7] is T1, Vascular endothelial growth factor receptor 2. The experiment in a line: Inhibition of KDR.
In assay [8] the test system is MCF7. Nature of the assay: Antiproliferative activity against human MCF7 cells at 10 uM after 72 hrs by MTS assay. Conditions: MCF7, 72 h.
Assay [9] concerns HT-29. The experiment in a line: Antiproliferative activity against human HT-29 cells at 10 uM after 72 hrs by MTS assay. The assay is classed as functional, cell-based. Conditions: HT-29, 72 h.
Assay [10] concerns PC-3. Nature of the assay: Antiproliferative activity against human PC3 cells at 10 uM after 72 hrs by MTS assay. The assay is classed as functional, cell-based. Conditions: PC-3, 72 h.
Assay [11] in a line: Antiproliferative activity against human EAhy926 cells at 10 uM after 72 hrs by MTS assay. The assay is classed as functional, cell-based. Conditions: EA.hy 926, 72 h.

Sequence of Epidermal growth factor receptor (P00533 whole entry): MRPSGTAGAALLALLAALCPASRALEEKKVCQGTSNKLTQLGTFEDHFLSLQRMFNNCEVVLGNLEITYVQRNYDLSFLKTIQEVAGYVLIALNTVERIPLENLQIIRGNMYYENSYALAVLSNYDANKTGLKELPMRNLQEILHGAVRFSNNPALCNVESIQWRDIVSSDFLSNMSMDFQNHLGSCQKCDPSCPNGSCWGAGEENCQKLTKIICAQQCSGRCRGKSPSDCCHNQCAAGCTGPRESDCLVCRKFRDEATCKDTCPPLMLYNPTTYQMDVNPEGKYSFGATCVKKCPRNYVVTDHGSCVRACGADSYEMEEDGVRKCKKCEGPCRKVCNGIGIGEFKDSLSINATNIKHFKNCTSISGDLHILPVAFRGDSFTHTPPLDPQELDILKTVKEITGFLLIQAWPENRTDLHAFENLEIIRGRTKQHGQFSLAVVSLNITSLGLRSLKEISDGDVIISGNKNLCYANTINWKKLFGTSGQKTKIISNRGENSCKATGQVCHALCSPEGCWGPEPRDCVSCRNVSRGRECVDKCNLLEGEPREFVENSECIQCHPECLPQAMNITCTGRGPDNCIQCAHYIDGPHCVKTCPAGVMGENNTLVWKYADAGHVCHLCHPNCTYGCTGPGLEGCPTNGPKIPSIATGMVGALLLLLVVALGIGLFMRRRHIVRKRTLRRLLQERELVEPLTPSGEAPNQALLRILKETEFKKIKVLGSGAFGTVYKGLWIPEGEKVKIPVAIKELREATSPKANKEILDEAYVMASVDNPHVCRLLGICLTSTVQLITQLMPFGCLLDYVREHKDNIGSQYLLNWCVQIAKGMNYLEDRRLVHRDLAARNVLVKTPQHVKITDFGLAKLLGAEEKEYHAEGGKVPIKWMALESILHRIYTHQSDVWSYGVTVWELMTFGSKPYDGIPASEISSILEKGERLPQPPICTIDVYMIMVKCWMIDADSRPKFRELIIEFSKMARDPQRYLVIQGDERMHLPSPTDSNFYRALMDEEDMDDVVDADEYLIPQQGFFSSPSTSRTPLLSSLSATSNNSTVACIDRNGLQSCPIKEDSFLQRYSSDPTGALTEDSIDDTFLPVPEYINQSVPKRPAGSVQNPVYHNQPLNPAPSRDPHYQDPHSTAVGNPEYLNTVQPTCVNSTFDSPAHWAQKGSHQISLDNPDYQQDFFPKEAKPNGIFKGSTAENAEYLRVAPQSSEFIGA

For orientation: IC50 means the point on the concentration scale where inhibition reaches its midpoint. Take `COc1cc2ncnc(Nc3ccc(NC(C)=O)cc3)c2cc1OC`: the Activity in assay [1] was 0%; in the assay with HT-29 [2], 0%; with PC-3 [4], 2%; in the assay with MCF7 [6], 12%. Besides, the IC50 in assay [3] and in [5] was more than 10 µM in each case.

As for `COc1cc2ncnc(Oc3ccc(Br)c(F)c3)c2cc1OC`, the half-inhibitory concentration (IC50) in assay [3] came out at 5.9 µM.

With `COc1ccc(NC(=O)Nc2ccc(Oc3ncnc4cc(OC)c(OC)cc34)cc2)cc1`, the Activity is 24% in assay [1], 9% with HT-29 [2], 12% in the assay with PC-3 [4] and 0% in the assay with MCF7 [6]. Further, the IC50 in assay [3] is more than 10 µM; in assay [7], 0.07 µM; in assay [5], 0.07 µM.

As to `COc1cc2ncnc(Oc3ccc(NC(=O)Nc4ccccc4)cc3)c2cc1OC`, the Activity is on record as 15% in assay [1], 12% in the assay with HT-29 [2], 23% in the assay on PC-3 [4] and 12% in the assay with MCF7 [6]. Besides, the results for the IC50 in assay [3] and in assay [5] were more than 10 µM and 0.06 µM, respectively.

Turning to `COc1cc2ncnc(N(C)c3cccc(NC(=O)Nc4ccccc4)c3)c2cc1OC`, the Activity (in assay [1]; in the assay with HT-29 [2]; with PC-3 [4]; with MCF7 [6]) was 0% each time.

In assay [3], `COC(=O)Nc1ccc(Oc2ncnc3cc(OC)c(OC)cc23)cc1` displayed a half-maximal inhibitory concentration (IC50) of more than 10 µM.

Compound `COc1cc2ncnc(Oc3ccc(NC(=O)Nc4ccc(C(F)(F)F)cc4)cc3)c2cc1OC` came in with a concentration for half-maximal inhibition (IC50) in assay [3] of more than 10 µM.

In the case of `COc1cc2ncnc(Oc3cccc(NC(=O)Nc4ccccc4)c3)c2cc1OC`, the IC50 in assay [3] was more than 10 µM.

`CCCCNC(=O)Nc1ccc(Oc2ncnc3cc(OC)c(OC)cc23)cc1` came in with an IC50 in assay [3] of more than 10 µM.

Regarding `COc1cc2ncnc(Nc3ccc(F)c(Cl)c3)c2cc1OC`, the half-maximal inhibitory concentration (IC50) with MCF7 [8] stood at 4.9 µM; in the assay with HT-29 [9], 5.7 µM; in [5], 5.3 µM; with PC-3 [10] it was 6.5 µM; in assay [11], 4.5 µM.

On to `COc1cc2ncnc(Oc3ccc(NC(C)=O)cc3)c2cc1OC`, for which the Activity was found to be 3% in assay [1], 0% in the assay with HT-29 [2], 0% in the assay with PC-3 [4] and 5% in the assay with MCF7 [6].

Consider `COc1ccc(NC(=O)Nc2cccc(N(C)c3ncnc4cc(OC)c(OC)cc34)c2)cc1`, for which the Activity (in [1]; in the assay on HT-29 [2]; in the assay with PC-3 [4]; in the assay on MCF7 [6]) was 0% in each case.

On to `COc1cc2ncnc(Oc3ccc(NC(=O)Nc4ccc5ccccc5c4)cc3)c2cc1OC`, for which the IC50 in [3] is more than 10 µM.

Turning to `COc1cc2ncnc(Oc3ccc(F)c(Cl)c3)c2cc1OC`, the IC50 is more than 10 µM in assay [3], 4.07 µM with HT-29 [9] and 9.5 µM in assay [5]. Besides, the Activity in the assay with PC-3 [4] was determined as 5%; in the assay on MCF7 [6], 0%.

The compound `COc1cc2ncnc(Nc3ccc(NC(=O)Nc4ccccc4)cc3)c2cc1OC` registered an IC50 in assay [3] of more than 10 µM.

Consider `COc1cc2ncnc(Nc3ccc(NC(=O)Nc4ccc(F)c(Cl)c4)cc3)c2cc1OC`, for which the IC50 in [3] was more than 10 µM; in the assay with MCF7 [8], 7.7 µM; in the assay on HT-29 [9], 6.2 µM; in [5], 4.3 µM; in the assay on PC-3 [10], 9.4 µM; in assay [11], 5.3 µM.

As to `COc1cc2ncnc(Oc3cccc(Br)c3)c2cc1OC`, the Activity stood at 0% in assay [1], 6% in the assay with HT-29 [2], 27% in the assay on PC-3 [4] and 0% in the assay with MCF7 [6]. The same compound displayed an IC50 in [3] of 7.6 µM.

Regarding `COc1cc2ncnc(N(C)c3ccc(Br)cc3F)c2cc1OC`, the Activity in assay [1] was 0%; with HT-29 [2], 14%; in the assay on PC-3 [4], 15%; with MCF7 [6], 0%. The IC50 in [3] and in [5] was more than 10 µM each time.

`COc1cc2ncnc(N(C)c3ccc(NC(=O)Nc4ccc(F)c(Cl)c4)cc3)c2cc1OC`: the results for the Activity (in assay [1]; in the assay on MCF7 [6]) were 29% and 35%, respectively. The half-inhibitory concentration (IC50) in [3] and in assay [5] was more than 10 µM each time.

In assay [3], `COc1cc2ncnc(Oc3ccc(NC(=O)Nc4ccc(F)c(Cl)c4)cc3)c2cc1OC` had an IC50 of more than 10 µM.

`COc1cc2ncnc(Oc3ccc(NC(=O)Nc4ccc(F)cc4F)cc3)c2cc1OC` yielded an IC50 in assay [3] of more than 10 µM.

In turn, `COc1ccc(NC(=O)Nc2ccc(Nc3ncnc4cc(OC)c(OC)cc34)cc2)cc1` registered an IC50 in assay [3] of more than 10 µM.

For the compound `COc1cc2ncnc(Nc3cccc(Br)c3)c2cc1OC`, the Activity with PC-3 [4] came out at 40%. Also, in assay [11], the IC50 worked out at 7.1 µM.

For the compound `COc1cc2ncnc(Nc3ccc(Br)cc3F)c2cc1OC`, the Activity in [1] is reported as 0%; in the assay on HT-29 [2] it was 0%; with PC-3 [4], 1%; in the assay on MCF7 [6], 31%. Further, the results for the IC50 in assay [3] and in [5] were 5.7 µM and 1.65 µM, respectively.

The compound `CCOC(=O)Nc1ccc(Oc2ncnc3cc(OC)c(OC)cc23)cc1` gave an IC50 in assay [3] of more than 10 µM.

Turning to `CCOC(=O)Nc1ccc(Nc2ncnc3cc(OC)c(OC)cc23)cc1`, the Activity was 0% in assay [1], 16% in the assay on HT-29 [2], 12% with PC-3 [4] and 6% in the assay on MCF7 [6]. The values for the IC50 in assay [3] and in [5] were more than 10 µM and 5.6 µM, respectively.

Take `COc1cc2/c(=N/c3ccc(Br)cc3F)nc[nH]c2cc1OCC1CCN(C)CC1` [VANDETANIB]: the values for the Activity in the assay on PC-3 [4] and in the assay with MCF7 [6] were 33% and 26%, respectively. In addition, the IC50 in the assay on HT-29 [9] is 4.2 µM; in assay [11], 5.1 µM.

Consider `COc1cc2ncnc(Oc3ccc(NC(=O)Nc4cccc5ccccc45)cc3)c2cc1OC`, for which the Activity was determined as 9% in assay [1], 17% with HT-29 [2], 8% in the assay with PC-3 [4] and 8% in the assay on MCF7 [6]. The IC50 in assay [3] is more than 10 µM.

In the case of `COc1cc2ncnc(Oc3ccc(NC(=O)Nc4ccc(C)cc4)cc3)c2cc1OC`, the Activity in [1] is on record as 42%; in the assay with HT-29 [2] it was 17%; in the assay on PC-3 [4], 23%; with MCF7 [6], 23%. For the same compound, the IC50 in assay [3] is more than 10 µM.

`COc1ccc(NC(=O)Nc2cccc(Oc3ncnc4cc(OC)c(OC)cc34)c2)cc1`: in assay [3], the IC50 was more than 10 µM.

In turn, `COc1cc2ncnc(Oc3ccc(NC(=O)NC4CCCCC4)cc3)c2cc1OC` registered a half-inhibitory concentration (IC50) in [3] of more than 10 µM.

For the compound `COC(=O)Nc1ccc(Nc2ncnc3cc(OC)c(OC)cc23)cc1`, the Activity in assay [1] is 0%; in the assay with HT-29 [2], 10%; in the assay with PC-3 [4], 2%; in the assay on MCF7 [6] it was 27%. Also, in assay [5], the concentration for half-maximal inhibition (IC50) was determined as 5.8 µM.

`COc1cc2ncnc(Oc3ccc(NC(=O)Nc4ccc(Br)cc4)cc3)c2cc1OC`: the 50% inhibitory concentration (IC50) in assay [3] is more than 10 µM.

In the case of `COc1cc2ncnc(N(C)c3ccc(F)c(Cl)c3)c2cc1OC`, the values for the Activity (in [1]; in the assay with PC-3 [4]; in the assay with MCF7 [6]) were 46%, 22% and 0%, respectively. The IC50 in assay [3] is more than 10 µM; with HT-29 [9], 5.2 µM; in assay [5], more than 10 µM.

The record behind these values is ChEMBL document CHEMBL1759979, “Impact of aryloxy-linked quinazolines: a novel series of selective VEGFR-2 receptor tyrosine kinase inhibitors” (Bioorg Med Chem Lett, 2011).
